Several values for one entry are separate records, joined by “and”; a condition that tells them apart may be missing. Equal values may be shown once.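 Grown in 96-well plates, cells were treated for 48 hours with each compound at five concentrations. Insufficient inhibition: endpoint recorded as highest concentration tested. GI50 marks 50% less growth. TGI: total growth inhibition.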
Columns and labels:
Experiment in all cases: NCI tumour cell line growth inhibition, 48 h
BT-549 breast = test system: BT-549 breast
OVCAR-3 ovarian = test system: OVCAR-3 ovarian
SNB-19 CNS = test system: SNB-19 CNS
RPMI-8226 leukemia = test system: RPMI-8226 leukemia
HCC-2998 colon = test system: HCC-2998 colon
HCT-116 colon = test system: HCT-116 colon
T-47D breast = test system: T-47D breast
COLO 205 colon = test system: COLO 205 colon
ACHN renal = test system: ACHN renal
786-0 renal = test system: 786-0 renal

| Structure (SMILES) | GI50 (BT-549 breast) [µM] | TGI (BT-549 breast) [µM] | GI50 (OVCAR-3 ovarian) [µM] | TGI (OVCAR-3 ovarian) [µM] | GI50 (SNB-19 CNS) | TGI (SNB-19 CNS) [µM] | GI50 (RPMI-8226 leukemia) [µM] | TGI (RPMI-8226 leukemia) [µM] | GI50 (HCC-2998 colon) | TGI (HCC-2998 colon) [µM] | GI50 (HCT-116 colon) [µM] | TGI (HCT-116 colon) [µM] | GI50 (T-47D breast) [µM] | TGI (T-47D breast) [µM] | GI50 (COLO 205 colon) [µM] | TGI (COLO 205 colon) [µM] | GI50 (ACHN renal) [µM] | TGI (ACHN renal) [µM] | GI50 (786-0 renal) | TGI (786-0 renal) [µM] |
| --- | --- | --- | --- | --- | --- | --- | --- | --- | --- | --- | --- | --- | --- | --- | --- | --- | --- | --- | --- | --- |
| O=C(CCC(C(=O)c1ccccc1)c1ccccc1)c1ccccc1 (configuration not stated) | 7.92 | 86.7 | 5.78 | > 100 | 73.8 µM | > 100 | 5.75 | 76.1 | 29.7 µM | > 100 | 6.45 | > 100 | 7.69 | > 100 | 8.8 | > 100 | 31.3 | > 100 | 49.4 µM | > 100 |
| CCCCCCCCCCCCCCCCOP(=O)(O)OP(=O)(O)OCC1OC(n2ccc(N)nc2=O)C(O)C1O (configuration not stated) | – | > 100 | – | > 100 | > 100 µM and 23.8 µM | > 100 | – | > 100 | > 100 µM and 36.8 µM | > 100 | – | > 100 | – | > 100 | – | > 100 | – | > 100 | > 100 µM and 26.2 µM | > 100 |
| O=C(Nc1nc2ccc(F)cc2s1)c1cccnc1Nc1ccc(Cl)cc1 | 2.77 | > 29.3 | 2.11 | 9.57 | 3.83 µM | > 100 | 1.24 | 7.47 | 2.73 µM | > 100 | 1.99 | > 29.2 | 1.04 | > 29.2 | 1.72 | 3.48 | 3.08 | > 100 | 2.93 µM | > 100 |
| CCCCCCCCCCCCOC1C(C(CC(=O)N2CCN(c3cccc(C(F)(F)F)c3)CC2)NS(=O)(=O)c2cc(Cl)cc(Cl)c2)OC2OC(C)(C)OC21 (configuration not stated) | > 100 | > 100 | > 100 | > 100 | > 100 µM | > 100 | > 100 | > 100 | > 100 µM | > 100 | > 100 | > 100 | > 100 | > 100 | > 100 | > 100 | > 100 | > 100 | > 100 µM | > 100 |
| O=C(NCc1ccncc1)C12CC3CC(C1)CC(c1ccc(Cl)cc1)(C3)C2 | 10.6 | 26.4 | 13.2 | 27.3 | 13.5 µM | 27.8 | 7.59 | 71.7 | 14.3 µM | 29.4 | 9.4 | 22.3 | 6.88 | 27.5 | 12.7 | 27.1 | 12.5 | 25 | 12.6 µM | 25.8 |
| COc1cnc2c(c1)C(=O)c1c-2n(CCCNC(C)C)c(=O)c2cc(F)ccc12 | 0.655 | 4.09 | 0.19 | 1.03 | 0.179 µM | 1.32 | 0.154 | 0.951 | 0.397 µM | 1.75 | 0.093 | 0.328 | 0.0846 | 0.651 | 0.0905 | 0.643 | 0.0565 | 0.229 | 0.116 µM | 0.482 |
| CC1=C([Te]c2ccc(O)cc2)C(=O)c2ccccc2C1=O | 0.448 | 4.22 | 1.44 | 2.79 | 2.8 µM | 10.7 | 1.16 | 4.51 | 2.88 µM | 9.66 | 0.715 | 2.05 | 1.1 | 3.25 | 0.383 | 1.4 | 1.54 | 3.85 | 2.61 µM | 7.88 |
| CCOC(=O)C(C)(C)C(O)C(C)C (configuration not stated) | – | > 100 | – | > 100 | – | > 100 | – | > 100 | – | > 100 | – | > 100 | – | > 100 | – | > 100 | – | > 100 | – | > 100 |
| COc1ccc(CNc2nc3cc(N)cc(N)c3nc2-c2ccccc2)cc1 | 6.52 | 30.7 | 2.23 | 7.77 | 41.5 µM | > 100 | – | 15.9 | 21.8 µM | 51.7 | 14.4 | 27.5 | 2.8 | 11 | 15.5 | 34.1 | 14.9 | 33.6 | 15.1 µM | 41.4 |

From PubChem BioAssay (NCI)
